The target in one series is CYP3A4 (Homo sapiens, UniProt P08684). Nature of the series: Inhibition of human liver microsomes CYP3A4 at 5 uM using midazolam or testosterone as substrate in presence of NADPH regenerating system by LC-MS/MS analysis relative to control. The note with it: probe midazolam or testosterone. The format is ADME, Microsome.
Series [1] can be described thus: Apparent permeability in human Caco-2 cells at 50 uM incubated for 120 mins by LC-MS/MS analysis. The format is ADME, cell-based.
A further series deals with Cytochrome P450 3A4 (Homo sapiens, UniProt P08684). As to the kind of experiment: Inhibition of human liver microsomes CYP3A4 using midazolam or testosterone as substrate in presence of NADPH regenerating system by LC-MS/MS analysis. Also on record: species or system Microsome.
The target in series [2] is High affinity nerve growth factor receptor (Homo sapiens, UniProt P04629). Nature of the series: Inhibition of wild type partial length human TRKA (G475 to G790 residues) expressed in mammalian expression system using Ulight-p70S6K peptide substrate incubated for 90 mins in presence of ATP by HTRF assay. On the technique in general: TR-FRET usually uses a lanthanide donor and a delayed reading to cut background.

The target of series [3] is Mast/stem cell growth factor receptor Kit (Homo sapiens, UniProt P10721). As to the kind of experiment: Inhibition of wild type partial length human KIT (I571 to D952 residues) expressed in bacterial expression system using Ulight-p70S6K peptide substrate incubated for 90 mins in presence of ATP by HTRF assay.
Series [4] addresses Platelet-derived growth factor receptor beta (Homo sapiens, UniProt P09619). As to the kind of experiment: Inhibition of wild type partial length human PDGFRbeta (V582 to Y1009 residues) expressed in bacterial expression system using Ulight-p70S6K peptide substrate incubated for 90 mins in presence of ATP by HTRF assay.
Series [5] in a line: Solubility of compound in FaSSIF by HPLC assay. The format is physicochemical.
Series [6] can be described thus: Solubility of compound in SGF by HPLC assay. In kind it is physicochemical.
Series [7] in a line: Clearance in Sprague-Dawley rat assessed as hepatic blood flow at 0.73 mg/kg, iv measured upto 24 hrs by LC-MS/MS analysis. The format is ADME, organism-based. The conditions noted are these: in vivo.
The nature of series [8]: Volume of distribution at steady state in Sprague-Dawley rat at 0.73 mg/kg, iv measured upto 24 hrs by LC-MS/MS analysis. In kind it is ADME, organism-based. The conditions noted are these: in vivo, read-out: Vdss.
A short description of series [9]: Half life in Sprague-Dawley rat at 0.73 mg/kg, iv measured upto 24 hrs by LC-MS/MS analysis. In kind it is ADME, organism-based. The note with it: in vivo.
Series [10] can be described thus: Cmax in Sprague-Dawley rat at 3.1 mg/kg, po measured upto 24 hrs by LC-MS/MS analysis. In kind it is ADME, organism-based. More on the design: time < 24 hrs, dose 3.1 mg/kg, route po. The note with it: in vivo.
Series [11] in a line: AUC in Sprague-Dawley rat at 3.1 mg/kg, po measured upto 24 hrs by LC-MS/MS analysis. The format is ADME, organism-based. More on the design: time < 24 hrs, dose 3.1 mg/kg, route po. The conditions noted are these: in vivo.
Series [12] is described as follows: Oral bioavailability in Sprague-Dawley rat at 3.1 mg/kg measured upto 24 hrs by LC-MS/MS analysis. The format is ADME, organism-based. The conditions noted are these: in vivo.
The subject of a further series is Mus musculus. As to the kind of experiment: In vivo inhibition of ERK phosphorylation in human UMUC14 cells xenografted with NSG mouse at 100 mg/kg, po measured after 2 hrs by MSD assay. In kind it is functional, organism-based. On the technique in general: A xenograft is tissue or cells of one species grown in another, often human tumour cells in immunodeficient mice.

In series [13] the target is Fibroblast growth factor receptor 2 (Homo sapiens, UniProt P21802). Nature of the series: Inhibition of N-terminal GST tagged recombinant human FGFR2 (400 to 821 residues) expressed in an Sf9 infected baculovirus expression system using biotin-EQEDEPEGDYFEWLE-amide as substrate preincubated for 5 to 10 mins followed by substrate addition and measured after 1 hr by HTRF assay.

Series [14] concerns the target Fibroblast growth factor receptor 4 (Homo sapiens, UniProt P22455). As to the kind of experiment: Inhibition of recombinant human FGFR4 (460 to 802 residues) using biotin-EQEDEPEGDYFEWLE-amide as substrate preincubated for 5 to 10 mins followed by substrate addition and measured after 1 hr by HTRF assay.

Molecules are shown by their SMILES. In brackets after ≈: the same amount, converted by molar mass. Activity calls are given as the source filed them. The calls are words filed in the database; no cut-off is given here.

Chain of Mast/stem cell growth factor receptor Kit (P10721 whole entry, the tested form may be a part): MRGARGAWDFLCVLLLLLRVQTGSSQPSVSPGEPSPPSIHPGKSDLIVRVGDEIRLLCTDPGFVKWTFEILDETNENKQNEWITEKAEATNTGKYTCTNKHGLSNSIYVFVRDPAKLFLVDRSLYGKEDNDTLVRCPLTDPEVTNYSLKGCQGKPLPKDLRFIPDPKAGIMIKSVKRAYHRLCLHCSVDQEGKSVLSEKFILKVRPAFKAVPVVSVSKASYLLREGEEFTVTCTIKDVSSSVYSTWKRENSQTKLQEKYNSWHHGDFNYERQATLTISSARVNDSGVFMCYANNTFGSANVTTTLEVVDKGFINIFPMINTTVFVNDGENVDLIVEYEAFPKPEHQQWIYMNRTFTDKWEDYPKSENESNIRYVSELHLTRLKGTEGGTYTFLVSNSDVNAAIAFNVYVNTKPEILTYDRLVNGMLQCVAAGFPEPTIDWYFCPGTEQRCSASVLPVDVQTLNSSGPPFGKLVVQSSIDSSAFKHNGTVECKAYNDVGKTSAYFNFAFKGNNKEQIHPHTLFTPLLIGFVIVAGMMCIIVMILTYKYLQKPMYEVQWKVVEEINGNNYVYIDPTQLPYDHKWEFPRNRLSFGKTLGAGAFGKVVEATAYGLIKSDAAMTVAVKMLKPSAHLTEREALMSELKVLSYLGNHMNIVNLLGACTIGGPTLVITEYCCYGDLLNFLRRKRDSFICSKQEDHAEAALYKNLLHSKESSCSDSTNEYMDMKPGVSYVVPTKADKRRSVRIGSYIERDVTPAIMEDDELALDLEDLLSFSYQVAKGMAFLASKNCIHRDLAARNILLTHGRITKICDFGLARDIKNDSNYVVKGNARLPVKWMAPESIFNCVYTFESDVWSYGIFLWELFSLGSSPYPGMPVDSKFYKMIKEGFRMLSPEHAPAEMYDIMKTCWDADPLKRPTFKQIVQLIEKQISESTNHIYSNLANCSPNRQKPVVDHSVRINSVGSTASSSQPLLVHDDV
Chain of Platelet-derived growth factor receptor beta (P09619 whole entry, the tested form may be a part): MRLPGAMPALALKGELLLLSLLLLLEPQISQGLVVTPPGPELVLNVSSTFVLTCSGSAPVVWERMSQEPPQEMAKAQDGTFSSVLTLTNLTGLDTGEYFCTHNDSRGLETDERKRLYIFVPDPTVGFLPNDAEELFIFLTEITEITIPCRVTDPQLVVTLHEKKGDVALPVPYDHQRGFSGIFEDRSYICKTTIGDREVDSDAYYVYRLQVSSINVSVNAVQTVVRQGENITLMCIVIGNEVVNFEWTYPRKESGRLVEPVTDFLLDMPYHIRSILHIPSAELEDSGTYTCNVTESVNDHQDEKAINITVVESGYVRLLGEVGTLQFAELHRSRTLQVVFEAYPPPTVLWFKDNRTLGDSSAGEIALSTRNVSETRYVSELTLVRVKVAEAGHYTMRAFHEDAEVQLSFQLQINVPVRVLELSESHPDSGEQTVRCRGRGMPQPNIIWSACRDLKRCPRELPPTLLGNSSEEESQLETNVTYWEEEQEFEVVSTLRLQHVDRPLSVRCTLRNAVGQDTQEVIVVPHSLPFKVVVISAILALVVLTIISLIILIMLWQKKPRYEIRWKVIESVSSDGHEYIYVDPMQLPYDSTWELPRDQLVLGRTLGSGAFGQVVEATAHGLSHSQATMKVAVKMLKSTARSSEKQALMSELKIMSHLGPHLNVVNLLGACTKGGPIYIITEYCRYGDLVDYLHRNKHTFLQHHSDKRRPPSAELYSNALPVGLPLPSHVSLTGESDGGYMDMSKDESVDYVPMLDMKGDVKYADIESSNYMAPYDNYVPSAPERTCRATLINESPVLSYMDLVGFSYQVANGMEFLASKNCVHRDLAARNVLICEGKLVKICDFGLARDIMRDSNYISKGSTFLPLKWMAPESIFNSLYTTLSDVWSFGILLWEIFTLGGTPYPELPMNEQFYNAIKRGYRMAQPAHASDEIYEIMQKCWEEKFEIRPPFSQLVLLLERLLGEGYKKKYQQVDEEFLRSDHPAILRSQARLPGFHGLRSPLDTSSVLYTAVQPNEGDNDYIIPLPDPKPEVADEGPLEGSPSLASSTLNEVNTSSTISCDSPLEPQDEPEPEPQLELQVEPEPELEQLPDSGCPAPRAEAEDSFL
Chain of High affinity nerve growth factor receptor (P04629 whole entry, the tested form may be a part): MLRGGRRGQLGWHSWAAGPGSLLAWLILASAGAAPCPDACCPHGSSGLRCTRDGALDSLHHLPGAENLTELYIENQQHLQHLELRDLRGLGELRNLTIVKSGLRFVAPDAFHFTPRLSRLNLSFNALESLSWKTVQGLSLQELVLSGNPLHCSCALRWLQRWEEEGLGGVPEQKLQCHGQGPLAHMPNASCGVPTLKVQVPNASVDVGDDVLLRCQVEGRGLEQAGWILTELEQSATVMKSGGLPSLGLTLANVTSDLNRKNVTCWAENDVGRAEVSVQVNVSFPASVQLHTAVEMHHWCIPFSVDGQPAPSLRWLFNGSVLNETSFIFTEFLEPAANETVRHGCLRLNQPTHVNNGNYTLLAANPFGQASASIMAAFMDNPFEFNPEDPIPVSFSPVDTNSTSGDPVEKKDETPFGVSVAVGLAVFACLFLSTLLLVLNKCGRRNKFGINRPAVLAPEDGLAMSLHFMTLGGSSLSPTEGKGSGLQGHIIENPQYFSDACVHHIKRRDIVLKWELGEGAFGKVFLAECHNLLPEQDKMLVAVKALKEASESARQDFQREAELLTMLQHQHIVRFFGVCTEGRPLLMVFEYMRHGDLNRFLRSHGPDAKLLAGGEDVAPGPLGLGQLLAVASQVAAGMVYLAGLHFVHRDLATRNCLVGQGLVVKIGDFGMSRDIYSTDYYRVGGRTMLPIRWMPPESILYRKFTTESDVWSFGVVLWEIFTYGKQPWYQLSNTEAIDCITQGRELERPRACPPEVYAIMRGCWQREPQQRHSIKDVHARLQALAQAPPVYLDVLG
Chain of Cytochrome P450 3A4 (P08684 whole entry, the tested form may be a part): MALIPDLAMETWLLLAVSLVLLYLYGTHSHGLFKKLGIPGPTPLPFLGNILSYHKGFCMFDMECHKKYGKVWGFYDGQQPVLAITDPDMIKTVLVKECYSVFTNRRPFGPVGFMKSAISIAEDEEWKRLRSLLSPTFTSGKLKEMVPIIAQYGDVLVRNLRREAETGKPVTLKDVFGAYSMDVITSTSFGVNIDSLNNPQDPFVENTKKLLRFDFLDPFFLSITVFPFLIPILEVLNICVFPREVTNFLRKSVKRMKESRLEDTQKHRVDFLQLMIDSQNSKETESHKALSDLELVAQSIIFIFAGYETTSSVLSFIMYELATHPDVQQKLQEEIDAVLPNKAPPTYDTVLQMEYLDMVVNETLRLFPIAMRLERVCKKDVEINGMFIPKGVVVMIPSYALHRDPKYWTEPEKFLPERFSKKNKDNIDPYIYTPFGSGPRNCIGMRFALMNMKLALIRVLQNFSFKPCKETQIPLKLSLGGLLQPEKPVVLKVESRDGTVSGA
Chain of CYP3A4 (P08684 whole entry): as the sequence (P08684 whole entry, the tested form may be a part) above
Chain of Fibroblast growth factor receptor 4 (P22455 whole entry, the tested form may be a part): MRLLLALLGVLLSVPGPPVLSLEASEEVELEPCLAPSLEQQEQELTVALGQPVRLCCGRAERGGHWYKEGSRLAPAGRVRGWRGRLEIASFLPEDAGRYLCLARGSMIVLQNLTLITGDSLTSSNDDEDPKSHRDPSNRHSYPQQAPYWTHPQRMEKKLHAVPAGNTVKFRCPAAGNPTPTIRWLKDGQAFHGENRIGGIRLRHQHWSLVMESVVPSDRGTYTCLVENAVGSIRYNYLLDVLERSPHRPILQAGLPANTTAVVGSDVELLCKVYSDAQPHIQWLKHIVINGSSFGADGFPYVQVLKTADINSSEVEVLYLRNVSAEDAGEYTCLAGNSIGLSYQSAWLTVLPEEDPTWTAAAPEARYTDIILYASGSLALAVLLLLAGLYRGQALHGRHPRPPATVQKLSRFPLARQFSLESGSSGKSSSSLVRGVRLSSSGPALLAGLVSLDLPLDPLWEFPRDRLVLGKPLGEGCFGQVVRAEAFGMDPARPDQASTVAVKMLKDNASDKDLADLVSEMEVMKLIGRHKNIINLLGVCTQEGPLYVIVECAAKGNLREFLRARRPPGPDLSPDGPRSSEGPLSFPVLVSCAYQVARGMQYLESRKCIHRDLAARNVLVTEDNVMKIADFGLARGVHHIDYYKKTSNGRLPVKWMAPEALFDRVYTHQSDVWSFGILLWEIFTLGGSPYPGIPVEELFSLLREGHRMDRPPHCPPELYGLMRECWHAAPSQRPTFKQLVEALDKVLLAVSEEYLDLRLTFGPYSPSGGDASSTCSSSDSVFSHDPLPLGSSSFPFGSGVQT
Chain of Fibroblast growth factor receptor 2 (P21802 whole entry, the tested form may be a part): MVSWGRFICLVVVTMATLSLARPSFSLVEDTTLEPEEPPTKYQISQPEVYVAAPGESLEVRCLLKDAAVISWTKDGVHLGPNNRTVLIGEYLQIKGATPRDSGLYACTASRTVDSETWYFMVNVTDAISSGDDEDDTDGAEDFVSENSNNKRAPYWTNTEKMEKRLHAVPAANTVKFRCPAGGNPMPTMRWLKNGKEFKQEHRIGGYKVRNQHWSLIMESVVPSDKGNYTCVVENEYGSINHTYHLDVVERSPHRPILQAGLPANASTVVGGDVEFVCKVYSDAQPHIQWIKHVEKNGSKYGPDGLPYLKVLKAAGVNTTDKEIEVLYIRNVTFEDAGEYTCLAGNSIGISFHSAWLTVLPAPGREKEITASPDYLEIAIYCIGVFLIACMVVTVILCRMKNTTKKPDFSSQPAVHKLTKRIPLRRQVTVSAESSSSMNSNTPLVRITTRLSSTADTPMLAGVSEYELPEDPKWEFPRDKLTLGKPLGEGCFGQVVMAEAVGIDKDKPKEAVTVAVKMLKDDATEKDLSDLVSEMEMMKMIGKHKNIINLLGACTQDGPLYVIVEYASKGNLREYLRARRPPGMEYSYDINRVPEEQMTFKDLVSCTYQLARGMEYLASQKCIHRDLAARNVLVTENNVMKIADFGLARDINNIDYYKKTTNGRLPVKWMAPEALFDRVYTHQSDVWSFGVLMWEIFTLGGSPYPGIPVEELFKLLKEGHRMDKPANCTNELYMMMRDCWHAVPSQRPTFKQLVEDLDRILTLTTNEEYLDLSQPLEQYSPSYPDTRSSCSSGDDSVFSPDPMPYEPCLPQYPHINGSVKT

For orientation: inhibition means how much of the control response was suppressed. For orientation: Papp means the rate of passage across a membrane or cell layer, normalised by area and donor concentration. Broadly, the IC50 is the concentration that gives 50% inhibition. With `CNC(=O)c1cncc(-c2cnn3cc(-c4cnn(C)c4)c(OC4CCOC4)nc23)c1` (racemic), the inhibition at 5 µM on CYP3A4 stood at 15%. In addition, the Papp at 2 h, 50 µM in series [1] was 0.2 ×10⁻⁶ cm/s. Moreover, the concentration for half-maximal inhibition (IC50) on Cytochrome P450 3A4 is greater than 5000 nM.
One may read the solubility as the concentration that dissolves in the medium under given conditions. Higher therefore signals much dissolved substance. The half-life is the time in which the quantity being followed falls by half. Broadly, the Cmax is the maximum level reached in the sampled fluid or tissue. The term AUC denotes the area under the concentration-time curve, a measure of exposure. Higher therefore signals more exposure. Usually bioavailability stands for the share of a dose that reaches the circulation, judged against a reference dose that is usually intravenous. Low values mean poor availability, high ones good availability. Take `CNC(=O)c1cc(F)c(F)c(-c2cnc3cc(-c4cnn(C)c4)c(O[C@H]4CCOC4)nn23)c1`: the IC50 in series [2] was 285 nM; in series [3], 1450 nM; in series [4], 1740 nM; at Cytochrome P450 3A4, 3900 nM. Further, in series [1], the Papp at 2 h, 50 µM was found to be 5.7 ×10⁻⁶ cm/s. For the same molecule, the results for the solubility in series [5] and in [6] were 118 µg/mL (≈ 260 µM) and greater than 400 µg/mL, respectively. For the same molecule, the QH in [7] was determined as 3.3%. For the same molecule, the Vd in series [8] came out at 0.35 L/kg. In [9], the half-life is 5.3 h. For the same molecule, the peak level in [10] (Cmax) was 6.17 µM. Also, the AUC at 24 h in series [11] was determined as 33.6 µM·h. In series [12], this molecule yielded a bioavailability of 54%.
In the case of `CNC(=O)c1cccc(-c2cnc3cc(-c4cnn(C)c4)c(O[C@H]4CCOC4)nn23)c1`, the IC50 was determined as 118 nM in [2], 82 nM in series [3] and 66 nM in series [4].
Take `CNC(=O)c1cc(C)c(F)c(-c2cnc3cc(-c4cnn(C)c4)c(O[C@H]4CCOC4)nn23)c1`: the IC50 worked out at 293 nM in series [2], 1660 nM in [3] and 1390 nM in series [4].
Consider `CCNC(=O)c1cncc(-c2cnn3cc(-c4cnn(CC)c4)c(O[C@H]4CCOC4)nc23)c1`, for which the Papp at 2 h, 50 µM in [1] turned out to be 0.6 ×10⁻⁶ cm/s. Also, the IC50 at Cytochrome P450 3A4 was greater than 25000 nM.
For `CNC(=O)c1cncc(-c2cnc3cc(-c4cnn(C)c4)c(OC4CCOC4)nn23)c1` (configuration not stated), the inhibition at 5 µM on CYP3A4 turned out to be 0%. The IC50 in [2] is 7300 nM; in [3] it was 284 nM; in series [4], 370 nM; at Cytochrome P450 3A4, greater than 5000 nM.
For `CNC(=O)c1ccc(F)c(-c2cnc3cc(-c4cnn(C)c4)c(OC)nn23)c1`, the IC50 in [2] was found to be 11 nM; in series [3] it was 180 nM; in [4] it was 348 nM.
Regarding `CNC(=O)c1cncc(-c2cnn3cc(-c4cnn(C(C)C)c4)c(O[C@H]4CCOC4)nc23)c1`, the Papp at 2 h, 50 µM in series [1] came out at 1.5 ×10⁻⁶ cm/s. In addition, the solubility is 17 µg/mL (≈ 38 µM) in [5] and greater than 400 µg/mL in series [6]. Moreover, the half-inhibitory concentration (IC50) on Cytochrome P450 3A4 came out at 9000 nM. In the series on Mus musculus, the outcome was Active.
Turning to `CNC(=O)c1cc(C)cc(-c2cnc3cc(-c4cnn(C(C)C)c4)c(O[C@H]4CCOC4)nn23)c1`, the values for the IC50 in series [2], in [3] and in series [4] were 363 nM, 22 nM and 126 nM, respectively.
Consider `[2H]C([2H])([2H])NC(=O)c1cncc(-c2cnn3cc(-c4ccn(C(C)C)n4)c(N[C@H]4CCOC4)nc23)c1`, for which, in [13], the IC50 is 0.2 nM.
For `CNC(=O)c1cc(-c2cnc3cc(-c4cnn(C)c4)c(O[C@H]4CCOC4)nn23)c(F)c(C(F)F)c1`, the values for the IC50 in [2], in series [3] and in series [4] were 443 nM, 619 nM and 800 nM, respectively.
Take `[2H]C([2H])([2H])NC(=O)c1cncc(-c2cnn3cc(-c4cnn(C(C)C)c4)c(O[C@H]4CCOC4)nc23)c1`: the Papp at 2 h, 50 µM in [1] came out at 2 ×10⁻⁶ cm/s. Besides, the solubility came out at 18 µg/mL (≈ 40 µM) in [5] and 679 µg/mL (≈ 1510 µM) in series [6]. In addition, the results for the half-inhibitory concentration (IC50) (at Cytochrome P450 3A4; in series [14]) were greater than 25000 nM and 145 nM, respectively. Moreover, in series [7], the QH turned out to be 35%. Besides, the Vd in series [8] was 1.6 L/kg. In addition, in series [9], the half-life is 1.7 h. Further, the Cmax in series [10] worked out at 2.3 µM. The AUC at 24 h in [11] was 5.11 µM·h. This molecule also had a bioavailability in [12] of 82%.
For the molecule `CNC(=O)c1cccc(-c2cnc3cc(-c4cnn(C)c4)c(OC)nn23)c1`, the figures for the IC50 in series [2] and in [4] were 58 nM and 38 nM, respectively.

Values taken from ChEMBL document CHEMBL5096240, “Discovery of Potent and Selective Inhibitors of Wild-Type and Gatekeeper Mutant Fibroblast Growth Factor Receptor (FGFR) 2/3” (J Med Chem, 2022).
